Laboratory results published in article PMC7116804 (Green chemistry : an international journal and green …, 2019).

Molecular target: Aa-ADH (Aromatoleum aromaticum, UniProt Q5P5I4)
Assay: oxidation of diol […] isomer mixture, product analysis
Type: biochemical
Settings: NAD+ 1 mM recycled by NOX; Tris-HCl pH 7.5, 30 °C, 24 h

Chain of Aa-ADH (Q5P5I4 2-249): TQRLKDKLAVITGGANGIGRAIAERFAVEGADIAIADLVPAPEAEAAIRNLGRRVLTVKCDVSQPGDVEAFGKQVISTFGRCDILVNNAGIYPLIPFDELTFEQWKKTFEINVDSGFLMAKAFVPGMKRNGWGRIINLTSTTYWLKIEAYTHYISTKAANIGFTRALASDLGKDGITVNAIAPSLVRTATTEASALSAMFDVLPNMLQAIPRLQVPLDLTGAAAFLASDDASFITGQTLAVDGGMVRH

Row | Compound | oxidation of diol 3 isomer mixture, product analysis
1 | C[C@H](O)[C@@H](O)c1ccccc1 [1S,2S-3] | Aa-ADH oxidized 1R,2R-3, 1S,2S-3 and 1R,2S-3
2 | C[C@@H](O)[C@H](O)c1ccccc1 [1R,2R-3] | Aa-ADH oxidized 1R,2R-3, 1S,2S-3 and 1R,2S-3
